Consider 30 compounds from the PolyMetriX glass transition set.

`*C(=O)Nc1ccc(Oc2cccc(NC(=O)c3ccc4c(c3)C(=O)N(c3ccc(Oc5ccc(N6C(=O)c7ccc(*)cc7C6=O)cc5)cc3)C4=O)c2)cc1` (repeat unit): the glass transition temperature turned out to be 236.00 °C. With `*C(=O)Nc1ccc(Oc2cccc(NC(=O)c3ccc4c(c3)C(=O)N(c3ccc(Oc5ccc6ccc(Oc7ccc(N8C(=O)c9ccc(*)cc9C8=O)cc7)cc6c5)cc3)C4=O)c2)cc1` (repeat unit), the glass transition temperature is 263.00 °C. To `*C(=O)Nc1ccc(Oc2cccc(NC(=O)c3ccc4c(c3)C(=O)N(c3ccc(Oc5cccc(N6C(=O)c7ccc(*)cc7C6=O)c5)cc3)C4=O)c2)cc1` (repeat unit) belongs 211.00 °C; to `*C(=O)Nc1ccc(Oc2cccc(Oc3ccc(NC(=O)c4ccc5c(c4)C(=O)N(c4ccc(Oc6ccc(C7(c8ccc(Oc9ccc(N%10C(=O)c%11ccc(*)cc%11C%10=O)cc9)cc8)NC(=O)c8ccccc87)cc6)cc4)C5=O)cc3)c2)cc1` (repeat unit), 288.00 °C. On to `*C(=O)Nc1ccc(Oc2cccc3c(NC(=O)c4ccc5c(c4)C(=O)N(c4ccc(Oc6cccc7c(N8C(=O)c9ccc(*)cc9C8=O)cccc67)cc4)C5=O)cccc23)cc1` (repeat unit), for which the glass transition temperature was determined as 276.00 °C.

For the compound `*C(=O)Nc1ccc(Oc2ccccc2-c2ccccc2Oc2ccc(NC(=O)c3ccc4c(c3)C(=O)N(c3ccc(Oc5ccc(-c6ccc(Oc7ccc(N8C(=O)c9ccc(*)cc9C8=O)cc7)cc6)cc5)cc3)C4=O)cc2)cc1` (repeat unit), the glass transition temperature turned out to be 239.00 °C.

As to `*C(=O)Nc1ccc(Oc2ccccc2-c2ccccc2Oc2ccc(NC(=O)c3ccc4c(c3)C(=O)N(c3ccc(Oc5ccc(N6C(=O)c7ccc(*)cc7C6=O)cc5)cc3)C4=O)cc2)cc1` (repeat unit), the glass transition temperature came to 239.00 °C. To `*C(=O)Nc1ccc(Oc2ccccc2-c2ccccc2Oc2ccc(NC(=O)c3ccc4c(c3)C(=O)N(c3ccc(Oc5cccc(Oc6ccc(N7C(=O)c8ccc(*)cc8C7=O)cc6)c5)cc3)C4=O)cc2)cc1` (repeat unit) belongs 229.00 °C. For the compound `*C(=O)Nc1ccc(S(=O)(=O)c2ccc(NC(=O)c3ccc4c(c3)C(=O)N(c3ccc(S(=O)(=O)c5ccc(N6C(=O)c7ccc(*)cc7C6=O)cc5)cc3)C4=O)cc2)cc1` (repeat unit), the glass transition temperature worked out at 307.00 °C.

`*C(=O)Nc1ccc(S(=O)(=O)c2ccc(NC(=O)c3ccc4c(c3)C(=O)N(c3cccc(P(=O)(c5ccccc5)c5cccc(N6C(=O)c7ccc(*)cc7C6=O)c5)c3)C4=O)cc2)cc1` (repeat unit) displayed a glass transition temperature of 241.00 °C. `*C(=O)Nc1ccc(Sc2ccc(NC(=O)c3ccc4c(c3)C(=O)N(c3ccc(Oc5ccc(N6C(=O)c7ccc(*)cc7C6=O)cc5)cc3)C4=O)cc2)cc1` (repeat unit): the glass transition temperature was determined as 284.00 °C. The value for `*C(=O)c1ccc2c(c1)C(=O)N(c1ccc(S(=O)(=O)c3ccc(NC(=O)c4cccc(C(=O)Nc5ccc(S(=O)(=O)c6ccc(N7C(=O)c8ccc(*)cc8C7=O)cc6)cc5)c4)cc3)cc1)C2=O` (repeat unit) was 226.00 °C; that for `*Nc1ccc(*)cc1OCCCCCCCCCCCCCCCC` (repeat unit) was 92.00 °C; that for `*Oc1ccc(C(=O)c2ccc(C(=O)c3ccc(*)cc3)cc2)cc1` (repeat unit) was 157.00 °C. The value for `*Oc1ccc(C(c2ccc(Oc3ccc(C(=O)c4ccc(C(c5ccc(C(=O)c6ccc(*)cc6)cc5)(C(F)(F)F)C(F)(F)F)cc4)cc3)cc2)(C(F)(F)F)C(F)(F)F)cc1` (repeat unit) was 185.00 °C; that for `*Oc1ccc(Oc2ccc(C(=O)c3ccc(C(=O)c4ccc(*)cc4)cc3)cc2)cc1-c1ccc(Cl)c(C(F)(F)F)c1` (repeat unit) was 147.00 °C. To `*Oc1ccc2ccc(Oc3ccc(C(=O)Nc4cccc(Oc5ccc(NC(=O)c6ccc(*)cc6)cc5)c4)cc3)cc2c1` (repeat unit) belongs 164.00 °C.

The compound `*Oc1cccc(NC(=O)c2ccc(C(=O)Nc3ccc(*)cc3)cc2)c1` (repeat unit) showed a glass transition temperature of 280.00 °C. The value for `*Sc1ccc(Nc2ccc(Nc3ccc(*)cc3)cc2)cc1` (repeat unit) was 114.00 °C. The value for `*c1ccc(-c2nc3cc(Oc4ccc(NC(=O)c5cc(C(=O)Nc6ccc(Oc7ccc8nc(-c9ccccc9)c(*)nc8c7)cc6)cc(N6C(=O)c7ccccc7C6=O)c5)cc4)ccc3nc2-c2ccccc2)cc1` (repeat unit) was 302.00 °C; that for `*c1ccc(-c2nc3cc(Oc4ccc(NC(=O)c5cc(C(=O)Nc6ccc(Oc7ccc8nc(-c9ccccc9)c(-c9ccc(N%10C(=O)c%11ccc%12c%13c(ccc(c%11%13)C%10=O)C(=O)N(*)C%12=O)cc9)nc8c7)cc6)cc(N6C(=O)c7c(Cl)c(Cl)c(Cl)c(Cl)c7C6=O)c5)cc4)ccc3nc2-c2ccccc2)cc1` (repeat unit) was 345.00 °C; that for `*c1ccc(-c2nc3cc(Oc4ccc(NC(=O)c5cc(C(=O)Nc6ccc(Oc7ccc8nc(-c9ccccc9)c(-c9ccc(N%10C(=O)c%11ccc%12c%13c(ccc(c%11%13)C%10=O)C(=O)N(*)C%12=O)cc9)nc8c7)cc6)cc(N6C(=O)c7ccccc7C6=O)c5)cc4)ccc3nc2-c2ccccc2)cc1` (repeat unit) was 345.00 °C. Turning to `*c1ccc(NC(=O)c2cc(C(=O)Nc3ccc(S(*)(=O)=O)cc3)cc(S(=O)(=O)c3ccccc3)c2)cc1` (repeat unit), the glass transition temperature was 307.00 °C.

In turn, `*c1ccc(NC(=O)c2cccc(C(=O)Nc3ccc(S(*)(=O)=O)cc3)c2)cc1` (repeat unit) gave a glass transition temperature of 78.00 °C. The value for `*c1ccc(Oc2ccc(-c3nc4cc(Oc5ccc(NC(=O)c6ccc7c(c6)C(=O)N(c6ccc(C(c8ccc(N9C(=O)c%10ccc(C(=O)Nc%11ccc(Oc%12ccc%13nc(-c%14ccc([N+](=O)[O-])cc%14)c(*)nc%13c%12)cc%11)cc%10C9=O)cc8)(C(F)(F)F)C(F)(F)F)cc6)C7=O)cc5)ccc4nc3-c3ccc([N+](=O)[O-])cc3)cc2)cc1` (repeat unit) was 303.00 °C.

In the case of `*c1ccc(Oc2ccc(-c3nc4cc(Oc5ccc(NC(=O)c6ccc7c(c6)C(=O)N(c6ccc(C(c8ccc(N9C(=O)c%10ccc(C(=O)Nc%11ccc(Oc%12ccc%13nc(-c%14ccccc%14)c(*)nc%13c%12)cc%11)cc%10C9=O)cc8)(C(F)(F)F)C(F)(F)F)cc6)C7=O)cc5)ccc4nc3-c3ccccc3)cc2)cc1` (repeat unit), the glass transition temperature came to 289.00 °C. In the case of `*c1ccc2c(c1)C(=O)N(c1ccc(C(=O)Nc3ccc(Oc4ccccc4Oc4ccc(NC(=O)c5ccc(N6C(=O)c7ccc(C(*)(C(F)(F)F)C(F)(F)F)cc7C6=O)cc5)cc4)cc3)cc1)C2=O` (repeat unit), the glass transition temperature is 281.00 °C. The value for `*c1ccc2c(c1)C(=O)N(c1cccc(C(=O)Nc3ccc(Oc4ccccc4Oc4ccc(NC(=O)c5cccc(N6C(=O)c7ccc(C(*)(C(F)(F)F)C(F)(F)F)cc7C6=O)c5)cc4)cc3)c1)C2=O` (repeat unit) was 265.00 °C; that for `*c1cccc(NC(=O)c2ccc(OCCOCCOCCOCCOc3ccc(C(=O)Nc4ccc5[nH]c(*)nc5c4)cc3)cc2)c1` (repeat unit) was 155.00 °C; that for `*c1cccc(NC(=O)c2ccc(OCCOCCOCCOc3ccc(C(=O)Nc4ccc5[nH]c(*)nc5c4)cc3)cc2)c1` (repeat unit) was 180.00 °C.
